Data: US20240041042A1, “1-(PYRIDYL)-5-AZINYLPYRAZOLE DERIVATIVES, AND THEIR USE FOR CONTROL OF UNDESIRED PLANT GROWTH” (Bayer Aktiengesellschaft, priority 2020, published 2024)

Legend:
Assay type in all cases: in vivo
[1] = system: Echinochloa crus-galli (ECHCG); experiment: Pre-emergence herbicidal action against ECHCG
How it was run: (§1)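 Greenhouse pot trial: seeds sown, soil-covered, sprayed before emergence with compound in water (0.5% additive; 600 l/ha; ≤320 g/ha). Scoring visual, ~3 weeks, 0–100% scale vs untreated.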

[2] = system: Abutilon theophrasti (ABUTH); experiment: Pre-emergence herbicidal action against ABUTH; details: Dosage column 320 g/ha (title prints 3200 g/ha); scored visually after about 3 weeks; 100% = plants have died
Description: Seeds of monocotyledonous and dicotyledonous weed plants and crop plants are placed in plastic or organic planting pots and covered with soil. The compounds of the invention, formulated in the form of wettable powders (WP) or as emulsion concentrates (EC), are then applied to the surface of the covering soil as aqueous suspension or emulsion with addition of 0.5% additive at a water application rate equivalent to 600 l/ha. After the treatment, the pots are placed in a greenhouse and kept under good growth conditions for the trial plants. After about 3 weeks, the effect of the preparations is scored visually in comparison with untreated controls as percentages. For example, 100% activity=the plants have died, 0% activity=like control plants.
Tables A1 to A13 below show the effects of selected compounds of the general formula (I) on various harmful plants and at an application rate corresponding to 320 g/ha or lower, which were obtained by the experimental procedure mentioned above. The appendices “a”, “b” and “c” give differentiation by dosage used with otherwise the same harmful plants tested.

[3] = system: Matricaria inodora (MATIN); experiment: Pre-emergence herbicidal action against MATIN; details: dosage 320 g/ha
How it was run: as §1

[4] = system: Verconica persica (VERPE); experiment: Post-emergence herbicidal action against VERPE
How it was run: (§2)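 Rates were 320 g/ha or below, applied as aqueous WP/EC spray with 0.5% additive (600 l/ha) onto one-leaf-stage plants. About 3 weeks later in the greenhouse, damage was scored visually against untreated plants on a 0–100% scale, where 100% means plants died.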

Avena fatua (AVEFA) [5] = experiment: Pre-emergence herbicidal action against AVEFA; details: visual scoring after about 3 weeks vs untreated controls
How it was run: as §1

[6] = system: Alopecurus myosuroides (ALOMY); experiment: Pre-emergence herbicidal action against ALOMY; details: scored visually after about 3 weeks, 100% = plants have died
How it was run: as §1

[7] = system: Abutilon theophrasti (ABUTH); experiment: Post-emergence herbicidal action against ABUTH; details: visual rating about 3 weeks after treatment vs untreated controls (100% = plants have died, 0% = like control plants)
How it was run: as §2

Setaria viridis (SETVI) [8] = experiment: Post-emergence herbicidal action against SETVI
How it was run: as §2

[9] = system: Echinochloa crus-galli (ECHCG); experiment: Post-emergence herbicidal action against ECHCG
How it was run: as §2

[10] = system: Amaranthus retroflexus (AMARE); experiment: Post-emergence herbicidal action against AMARE
How it was run: as §2

Oryza sativa (ORYSA) = details: crop plant compatibility, 80 g/ha, effect in comparison to untreated controls
How it was run: (§3)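 Effects were read visually as % versus untreated controls (0% = no effect, 100% = death) about 3 weeks post-treatment. Application was a post-emergence spray at the one-leaf stage of WP/EC formulations with 0.5% additive at 600 l/ha. Different dosages are denoted a, b and c.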

[11] = system: Polygonum convolvulus (POLCO); experiment: Pre-emergence herbicidal action against POLCO
How it was run: as §1

Lolium rigidum (LOLRI) [12] = experiment: Pre-emergence herbicidal action against LOLRI
How it was run: as §1

Lolium rigidum (LOLRI) [13] = experiment: Post-emergence herbicidal action against LOLRI; details: dosage 320 g/ha
How it was run: as §2

[14] = system: Alopecurus myosuroides (ALOMY); experiment: Post-emergence herbicidal action against ALOMY; details: visual rating about 3 weeks after treatment vs untreated controls (100% = plants have died, 0% = like control plants)
How it was run: as §2

Viola tricolor (VIOTR) [15] = experiment: Post-emergence herbicidal action against VIOTR
How it was run: as §2

Setaria viridis (SETVI) [16] = experiment: Pre-emergence herbicidal action against SETVI
How it was run: as §1

[17] = system: Verconica persica (VERPE); experiment: Pre-emergence herbicidal action against VERPE; details: dosage 320 g/ha
How it was run: as §1

[18] = system: Amaranthus retroflexus (AMARE); experiment: Pre-emergence herbicidal action against AMARE; details: visual scoring after about 3 weeks vs untreated controls
How it was run: as §1

Avena fatua (AVEFA) [19] = experiment: Post-emergence herbicidal action against AVEFA; details: visual rating about 3 weeks after treatment
How it was run: as §2

Viola tricolor (VIOTR) [20] = experiment: Pre-emergence herbicidal action against VIOTR
How it was run: as §1

[21] = system: Pharbitis purpurea (PHBPU); experiment: Post-emergence herbicidal action against PHBPU; details: dosage 320 g/ha
How it was run: as §2

Zea mays (ZEAMX) = details: crop plant compatibility, 80 g/ha, effect vs untreated controls
How it was run: as §3

[22] = system: Polygonum convolvulus (POLCO); experiment: Post-emergence herbicidal action against POLCO
How it was run: as §2

[23] = 80 g/ha, visual rating about 3 weeks after treatment vs untreated controls (100% = plants have died, 0% = like control plants)
[24] = 320 g/ha, visual rating about 3 weeks after treatment

Structure (SMILES) | Pre-emergence action against ECHCG in % ([1]; dosage 320 g/ha) [%] | Pre-emergence action against ABUTH [2] [%] | Pre-emergence action against MATIN in % [3] [%] | Post-emergence action against VERPE in % ([4]; 320 g/ha, VERPE) [%] | Post-emergence action against VERPE in % ([4]; dosage 80 g/ha) [%] | Pre-emergence action against AVEFA in % (Avena fatua (AVEFA) [5]; 320 g/ha) [%] | Pre-emergence action against ALOMY ([6]; 80 g/ha) [%] | Pre-emergence action against ALOMY ([6]; 320 g/ha) [%] | Post-emergence action against ABUTH in % ([7]; 80 g/ha) [%] | Post-emergence action against ABUTH in % ([7]; 320 g/ha) [%] | Post-emergence action against SETVI in % (Setaria viridis (SETVI) [8]; dosage 80 g/ha) [%] | Post-emergence action against SETVI in % (Setaria viridis (SETVI) [8]; dosage 320 g/ha) [%] | Post-emergence action against ECHCG in % ([9]; dosage 80 g/ha) [%] | Post-emergence action against ECHCG in % ([9]; dosage 320 g/ha) [%] | Post-emergence action against AMARE in % [10, 23] [%] | Post-emergence action against AMARE in % [10, 24] [%] | Pre-emergence action against POLCO in % ([11]; dosage 320 g/ha) [%] | Pre-emergence action against LOLRI in % (Lolium rigidum (LOLRI) [12]; dosage 80 g/ha) [%] | Pre-emergence action against LOLRI in % (Lolium rigidum (LOLRI) [12]; dosage 320 g/ha) [%] | Post-emergence action against LOLRI in % (Lolium rigidum (LOLRI) [13]) [%] | other results
COC(=O)[C@@H](C)Oc1nn(-c2ccnc(Cl)c2)c(-c2ccc(F)nc2)c1Br [III-22] | 100 | 100 | 100 | 90 | 80 | 100 | 100 | 100 | 90 | 90 | 100 | 100 | 100 | 100 | 90 | 90 | 100 | 100 | 100 | 100 | Pre-emergence action against ECHCG in % ([1]; dosage 80 g/ha): 100%; Pre-emergence action against AVEFA in % (Avena fatua (AVEFA) [5]; 80 g/ha): 80%; Post-emergence action against ORYSA in % (Oryza sativa (ORYSA)): 0%; Post-emergence action against ALOMY in % ([14]; 80 g/ha): 100%; Post-emergence action against ALOMY in % ([14]; 320 g/ha): 100%; Post-emergence action against VIOTR in % (Viola tricolor (VIOTR) [15]; 80 g/ha): 90%; Post-emergence action against VIOTR in % (Viola tricolor (VIOTR) [15]; 320 g/ha): 90%; Pre-emergence action against SETVI in % (Setaria viridis (SETVI) [16]; dosage 80 g/ha): 100%; Pre-emergence action against SETVI in % (Setaria viridis (SETVI) [16]; dosage 320 g/ha): 100%; Pre-emergence action against VERPE in % [17]: 100%; Pre-emergence action against AMARE in % ([18]; 80 g/ha): 90%; Pre-emergence action against AMARE in % ([18]; 320 g/ha): 100%; Post-emergence action against AVEFA in % (Avena fatua (AVEFA) [19]; 80 g/ha): 100%; Post-emergence action against AVEFA in % (Avena fatua (AVEFA) [19]; 320 g/ha): 100%; Pre-emergence action against VIOTR in % (Viola tricolor (VIOTR) [20]; 320 g/ha, Viola tricolor): 100%; Pre-emergence action against VIOTR in % (Viola tricolor (VIOTR) [20]; dosage 80 g/ha): 90%; Post-emergence action against PHBPU in % [21]: 80%
CCOC(=O)CNC(=O)COc1nn(-c2ncccc2F)c(-c2ccc(OC)nc2)c1Br [Example I-48] | 100 | 80 | 100 | 90 | 90 | 100 | 80 | 100 | 90 | 90 | 80 | 80 | 80 | 90 | 80 | 80 | 90 | 100 | 100 | 80 | Post-emergence action against ZEAMX in % (Zea mays (ZEAMX)): 20%; Pre-emergence action against POLCO in % ([11]; dosage 80 g/ha): 90%; Post-emergence action against POLCO in % ([22]; dosage 80 g/ha): 80%; Post-emergence action against POLCO in % ([22]; dosage 320 g/ha): 90%; Post-emergence action against ALOMY in % ([14]; 80 g/ha): 100%; Post-emergence action against ALOMY in % ([14]; 320 g/ha): 100%; Post-emergence action against VIOTR in % (Viola tricolor (VIOTR) [15]; 80 g/ha): 80%; Post-emergence action against VIOTR in % (Viola tricolor (VIOTR) [15]; 320 g/ha): 90%; Pre-emergence action against SETVI in % (Setaria viridis (SETVI) [16]; dosage 80 g/ha): 100%; Pre-emergence action against SETVI in % (Setaria viridis (SETVI) [16]; dosage 320 g/ha): 100%; Pre-emergence action against VERPE in % [17]: 100%; Pre-emergence action against AMARE in % ([18]; 80 g/ha): 90%; Pre-emergence action against AMARE in % ([18]; 320 g/ha): 100%; Post-emergence action against AVEFA in % (Avena fatua (AVEFA) [19]; 320 g/ha): 100%; Pre-emergence action against VIOTR in % (Viola tricolor (VIOTR) [20]; 320 g/ha, Viola tricolor): 100%; Pre-emergence action against VIOTR in % (Viola tricolor (VIOTR) [20]; dosage 80 g/ha): 100%; Post-emergence action against PHBPU in % [21]: 90%
